Our source for the TGI values is PubChem BioAssay (NCI).

Test systems include 786-0 renal; BT-549 breast; HOP-18 NSCLC; P388 leukemia; P388/ADR leukemia; SN12K1 renal; XF 498 CNS.
Test in all cases: NCI tumour cell line growth inhibition, 48 h

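Each compound was tested at five concentrations against cells in 96-well plates for 48 hours. TGI marks complete inhibition of growth.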 Some results are limits rather than exact numbers.

In the case of `[N-]=[N+]=C1N=CN=C1c1ncn[nH]1`, in the assay on 786-0 renal, the TGI was over 100 µM.
Consider `C[Si](C)(OCCS(=O)(=O)O)C1(Cc2cccc3ccccc23)S(=O)(=O)OCCOS1(=O)=O`, for which, in the assay on BT-549 breast, the TGI came out at 33.5 µM.
Compound `CCOP(=O)(OCC)/C(C#N)=C/c1cn(C)cn1` registered a TGI in the assay on BT-549 breast of over 100 µM.
Turning to `N[C@H](C(=O)O)[C@H]1ON=C(Cl)[C@@H]1O`, the TGI was over 550 µM in the assay on HOP-18 NSCLC; 17.5 µM in the assay on P388 leukemia; 46.4 µM in the assay on P388/ADR leukemia; over 324 µM in the assay on SN12K1 renal; over 301 µM in the assay with XF 498 CNS.
Regarding `C[C@]12CCC(=O)C=C1CC[C@@H]1[C@@H]2[C@@H](O)C[C@@]2(C)[C@H]1CC[C@]2(O)C(=O)COC(=O)COCC(=O)O`, the TGI in the assay on 786-0 renal, in the assay on HOP-18 NSCLC and in the assay with XF 498 CNS was over 100 µM throughout.
For the compound `O=S(=O)(CCBr)CCBr`, the TGI in the assay with HOP-18 NSCLC worked out at 32 µM; in the assay with P388 leukemia, 5.67 µM; in the assay with P388/ADR leukemia it was 12.1 µM; in the assay with SN12K1 renal, 19.7 µM.
On to `COc1ccc(-n2cnnc2-c2nsc3ccccc23)cc1`, for which the TGI with HOP-18 NSCLC is over 100 µM.
Consider `O=C(O)c1cc2ccccc2c(N=Nc2ccc(S(=O)(=O)Nc3nccs3)cc2)c1O`, for which, in the assay with 786-0 renal, the TGI was over 100 µM.
The compound `Nc1nc(SCc2ccc([N+](=O)[O-])cc2)nc2c1ncn2C1OC(COP(=O)(O)O)C(O)C1O` (centres undefined) showed a TGI in the assay with XF 498 CNS of over 100 µM.
Same read-out and setting: in the case of `CC(C)OP(=O)(OC(C)C)/C(I)=N/Nc1ccc([N+](=O)[O-])cc1` it was over 100 µM.
As for `CC(NC(=O)C(C)NC(=O)C(N)CCP(C)(=O)O)C(=O)O` (centres undefined), the TGI is over 100 µM with HOP-18 NSCLC; over 31.6 µM in the assay on P388 leukemia; over 100 µM with P388/ADR leukemia; over 100 µM in the assay on SN12K1 renal; over 100 µM in the assay with XF 498 CNS.
